# Assay results from patent US11643439B2, “Multi-target compound with anticoagulation and antiplatelet activity, preparation method therefor, and use thereof” (SHAANXI MICOT TECHNOLOGY LIMITED COMPANY, priority 2015, dated 2023).
# Bridge positions count the residues as written; N and C are the ends. Square brackets hold non-standard residues; d marks the D form. Peptide text beside a SMILES is read from it. hArg = N=C(N)NCCCC[C@H](N)C(=O)O; Mpa = O=C(O)CCS
# Test system: ADP-induced human platelet aggregation
# Assay: ADP-induced human platelet aggregation in vitro
# Format: cell-based
# Settings: human PRP, 3 × 10−6 mol/L
# Protocol: The drawn blood was centrifuged at 810 rpm for 8 minutes to obtain platelet rich plasma (PRP), which was taken out, then the blood sample was further centrifuged at 3510 rpm for 8 minutes to obtain platelet poor plasma (PPP).
# Determination of platelet aggregation: A platelet aggregation instrument was started up and preheated for 30 minutes, and then calibrated with PPP. Into the test cups 270 μl of PRP was added, and then 10 μl of polypeptide 1, polypeptide 2, polypeptide 3 or polypeptide 4 (1.0×10^−7 mol/L) and/or 20 μl of physiological saline were added respectively, till a total volume of 300 μl. After incubation for 5 min, 5 μl of inducer ADP and 5 μl of epinephrine were added to start the test. After 5 minutes, the test was completed, and the maximum aggregation rate within the 5 minutes was recorded, and the data and maps were printed.
smiles,measurement,value
N=C(N)NCCCC[C@@H]1NC(=O)CCSSC[C@@H](C(N)=O)NC(=O)[C@@H]2CCCN2C(=O)[C@H](Cc2c[nH]c3ccccc23)NC(=O)[C@H](CC(=O)O)NC(=O)CNC1=O [Integrilin] ([Mpa][hArg]GDWPC-NH2; disulfide 1-7),inhibitory rate of platelet aggregation,100%
